Experimental data as given in ChEMBL document CHEMBL3885881, “DrugMatrix”.

Species on record: Rattus norvegicus
Test: DrugMatrix - Regimen: Daily Repeat
Type: toxicity, organism-based, Sprague-Dawley
Design: regimen Daily Repeat, gender Male, age 6-8 weeks
Conditions: in vivo, po, route oral GAVAGE, vehicle .5 % CMC; for BASOPHIL / EOSINOPHIL / ERYTHROCYTE COUNT / HEMATOCRIT / LEUKOCYTE COUNT / LYMPHOCYTE / MEAN CORPUSCULAR HEMOGLOBIN / MEAN CORPUSCULAR HEMOGLOBIN CONCENTRATION / MONOCYTE / NEUTROPHIL / PLATELET COUNT / HEMOGLOBIN / MEAN CORPUSCULAR VOLUME: tissue Blood; for ALANINE AMINOTRANSFERASE / ALBUMIN / ASPARTATE AMINOTRANSFERASE / BLOOD UREA NITROGEN / CHOLESTEROL / CREATINE PHOSPHOKINASE / CREATININE / GLUCOSE / PHOSPHORUS / POTASSIUM / SODIUM / TOTAL PROTEIN / ALKALINE PHOSPHATASE: tissue Plasma
[1] = 0 mg/kg, 72 h, dose level Control, time 3 day
[2] = 0 mg/kg, 120 h, dose level Control, time 5 day
[3] = […], 72 h, dose 0.77 mg/Kg, dose level Low, time 3 day
[4] = […], 72 h, dose 7.5 mg/Kg, dose level High, time 3 day
[5] = […], 120 h, dose 0.77 mg/Kg, dose level Low, time 5 day
[6] = […], 120 h, dose 7.5 mg/Kg, dose level High, time 5 day

**Q.** Which results are given for IVERMECTIN?
**A.** BASOPHIL [1]: 0%; EOSINOPHIL [1]: 0.33%; ERYTHROCYTE COUNT [1]: 6.03 x10E6/uL; HEMATOCRIT [1]: 38.8%; LEUKOCYTE COUNT [1]: 10.64 x10E3/uL; LYMPHOCYTE [1]: 83.33%; MEAN CORPUSCULAR HEMOGLOBIN [1]: 23.64 pg; MEAN CORPUSCULAR HEMOGLOBIN CONCENTRATION [1]: 36.74 G/DL; MONOCYTE [1]: 3.33%; NEUTROPHIL [1]: 13%; PLATELET COUNT [1]: 1264.4 x10E3/uL; ALANINE AMINOTRANSFERASE [1]: 38.83 u/L; ALBUMIN [1]: 3.55 G/DL; ASPARTATE AMINOTRANSFERASE [1]: 66.17 u/L; BLOOD UREA NITROGEN [1]: 15.67 mg/dL; CHOLESTEROL [1]: 76.5 mg/dL; CREATINE PHOSPHOKINASE [1]: 166.83 u/L; CREATININE [1]: 0.52 mg/dL; GLUCOSE [1]: 173.17 mg/dL; PHOSPHORUS [1]: 11.68 mg/dL; POTASSIUM [1]: 6.43 MEQ/L; SODIUM [1]: 149.5 MEQ/L; TOTAL PROTEIN [1]: 5.93 G/DL; BASOPHIL [2]: 0%; EOSINOPHIL [2]: 0%; ERYTHROCYTE COUNT [2]: 5.88 x10E6/uL; HEMATOCRIT [2]: 37.87%; HEMOGLOBIN [2]: 14.48 G/DL; LEUKOCYTE COUNT [2]: 12.43 x10E3/uL; LYMPHOCYTE [2]: 84.17%; MEAN CORPUSCULAR HEMOGLOBIN [2]: 24.65 pg; MEAN CORPUSCULAR HEMOGLOBIN CONCENTRATION [2]: 38.25 G/DL; MEAN CORPUSCULAR VOLUME [2]: 64.47 fL; MONOCYTE [2]: 4.33%; NEUTROPHIL [2]: 11.5%; PLATELET COUNT [2]: 1182.33 x10E3/uL; ALANINE AMINOTRANSFERASE [2]: 38.67 u/L; ALBUMIN [2]: 3.55 G/DL; ALKALINE PHOSPHATASE [2]: 342.5 u/L; ASPARTATE AMINOTRANSFERASE [2]: 63.33 u/L; BLOOD UREA NITROGEN [2]: 15.5 mg/dL; CHOLESTEROL [2]: 75.5 mg/dL; CREATINE PHOSPHOKINASE [2]: 142.5 u/L; CREATININE [2]: 0.62 mg/dL; GLUCOSE [2]: 165.17 mg/dL; PHOSPHORUS [2]: 10.87 mg/dL; POTASSIUM [2]: 6.85 MEQ/L; SODIUM [2]: 150.17 MEQ/L; TOTAL PROTEIN [2]: 5.93 G/DL; BASOPHIL [3]: 0%; EOSINOPHIL [3]: 0%; ERYTHROCYTE COUNT [3]: 5.86 x10E6/uL; HEMATOCRIT [3]: 37.37%; HEMOGLOBIN [3]: 14 G/DL; LEUKOCYTE COUNT [3]: 13.5 x10E3/uL; LYMPHOCYTE [3]: 81.33%; MEAN CORPUSCULAR HEMOGLOBIN [3]: 23.97 pg; MEAN CORPUSCULAR HEMOGLOBIN CONCENTRATION [3]: 37.5 G/DL; MONOCYTE [3]: 4%; NEUTROPHIL [3]: 14.67%; PLATELET COUNT [3]: 1163.33 x10E3/uL; BASOPHIL [4]: 0%; EOSINOPHIL [4]: 0%; ERYTHROCYTE COUNT [4]: 6.06 x10E6/uL; HEMATOCRIT [4]: 37.9%; HEMOGLOBIN [4]: 13.7 G/DL; LEUKOCYTE COUNT [4]: 13 x10E3/uL; LYMPHOCYTE [4]: 92%; MEAN CORPUSCULAR HEMOGLOBIN [4]: 22.6 pg; MEAN CORPUSCULAR HEMOGLOBIN CONCENTRATION [4]: 36.1 G/DL; MONOCYTE [4]: 4%; NEUTROPHIL [4]: 4%; PLATELET COUNT [4]: 1400 x10E3/uL; ALANINE AMINOTRANSFERASE [3]: 35 u/L; ALKALINE PHOSPHATASE [3]: 418 u/L; ASPARTATE AMINOTRANSFERASE [3]: 56 u/L; BLOOD UREA NITROGEN [3]: 12.67 mg/dL; CHOLESTEROL [3]: 77.33 mg/dL; CREATINE PHOSPHOKINASE [3]: 149.33 u/L; CREATININE [3]: 0.5 mg/dL; PHOSPHORUS [3]: 13.27 mg/dL; POTASSIUM [3]: 6.9 MEQ/L; SODIUM [3]: 150.33 MEQ/L; TOTAL PROTEIN [3]: 5.73 G/DL; ALANINE AMINOTRANSFERASE [4]: 31 u/L; ALKALINE PHOSPHATASE [4]: 420 u/L; ASPARTATE AMINOTRANSFERASE [4]: 57 u/L; CHOLESTEROL [4]: 70 mg/dL; CREATINE PHOSPHOKINASE [4]: 190 u/L; CREATININE [4]: 0.5 mg/dL; PHOSPHORUS [4]: 13.3 mg/dL; POTASSIUM [4]: 6.93 MEQ/L; SODIUM [4]: 150.33 MEQ/L; BASOPHIL [5]: 0%; EOSINOPHIL [5]: 0%; ERYTHROCYTE COUNT [5]: 5.85 x10E6/uL; HEMATOCRIT [5]: 37.25%; HEMOGLOBIN [5]: 14 G/DL; LEUKOCYTE COUNT [5]: 11.3 x10E3/uL; LYMPHOCYTE [5]: 94%; MEAN CORPUSCULAR HEMOGLOBIN [5]: 23.95 pg; MEAN CORPUSCULAR HEMOGLOBIN CONCENTRATION [5]: 37.6 G/DL; MONOCYTE [5]: 0%; NEUTROPHIL [5]: 6%; PLATELET COUNT [5]: 1300.5 x10E3/uL; BASOPHIL [6]: 0%; EOSINOPHIL [6]: 0.33%; ERYTHROCYTE COUNT [6]: 6.11 x10E6/uL; HEMATOCRIT [6]: 40.07%; HEMOGLOBIN [6]: 15 G/DL; LEUKOCYTE COUNT [6]: 16.37 x10E3/uL; LYMPHOCYTE [6]: 90%; MEAN CORPUSCULAR HEMOGLOBIN CONCENTRATION [6]: 37.43 G/DL; MEAN CORPUSCULAR VOLUME [6]: 65.57 fL; MONOCYTE [6]: 1%; PLATELET COUNT [6]: 1335.33 x10E3/uL; ALANINE AMINOTRANSFERASE [5]: 36.33 u/L; ALKALINE PHOSPHATASE [5]: 489 u/L; ASPARTATE AMINOTRANSFERASE [5]: 59.67 u/L; BLOOD UREA NITROGEN [5]: 15.67 mg/dL; CHOLESTEROL [5]: 69.67 mg/dL; CREATINE PHOSPHOKINASE [5]: 135.67 u/L; CREATININE [5]: 0.53 mg/dL; GLUCOSE [5]: 195.33 mg/dL; PHOSPHORUS [5]: 13.07 mg/dL; POTASSIUM [5]: 6.87 MEQ/L; TOTAL PROTEIN [5]: 5.7 G/DL; ALANINE AMINOTRANSFERASE [6]: 29.33 u/L; ALKALINE PHOSPHATASE [6]: 361 u/L; ASPARTATE AMINOTRANSFERASE [6]: 51.67 u/L; BLOOD UREA NITROGEN [6]: 15.67 mg/dL; CHOLESTEROL [6]: 64.67 mg/dL; CREATINE PHOSPHOKINASE [6]: 155.67 u/L; CREATININE [6]: 0.53 mg/dL; GLUCOSE [6]: 166.33 mg/dL; PHOSPHORUS [6]: 13.37 mg/dL; POTASSIUM [6]: 7.1 MEQ/L; SODIUM [6]: 147 MEQ/L; TOTAL PROTEIN [6]: 5.7 G/DL
